# Test results as given in ChEMBL document CHEMBL1201862, “PubChem BioAssay data set” (2004).
# Where “and” joins values, the source holds several entries; their conditions need not be identical. Equal entries are not always repeated.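 In this assay, cells in 96-well plates receive the compound at five concentrations for 48 hours. Endpoints are linearly interpolated between the surrounding concentrations. Here, GI50 denotes the concentration required for 50% inhibition of growth.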 Calls of active or inactive are those of the source. No stated cut-off is given here; in the data, active = GI50 up to about 1.1 µM and inactive = higher.
# Columns and labels:
# Assay in all cases: NCI tumour cell line growth inhibition, 48 h
# 786-0 = system: 786-0
# A498 = system: A498
# A549 = system: A549
# ACHN = system: ACHN
# COLO 205 = system: COLO 205
# DU-145 = system: DU-145
# EKVX = system: EKVX
# HCC 2998 = system: HCC 2998
# HCT-116 = system: HCT-116
# HCT-15 = system: HCT-15
# HL-60 = system: HL-60
# HOP-62 = system: HOP-62
# HOP-92 = system: HOP-92
# HT-29 = system: HT-29
# Hs-578T = system: Hs-578T
# IGROV-1 = system: IGROV-1
# K562 = system: K562
# KM12 = system: KM12
# LOX IMVI = system: LOX IMVI
# M14 = system: M14
# MCF7 = system: MCF7
# MDA-MB-231 = system: MDA-MB-231
# MDA-MB-435 = system: MDA-MB-435
# MDA-N = system: MDA-N
# MOLT-4 = system: MOLT-4
# Malme-3M = system: Malme-3M
# NCI-H226 = system: NCI-H226
# NCI-H23 = system: NCI-H23
# NCI-H460 = system: NCI-H460
# NCI-H522 = system: NCI-H522
# NCI/ADR-RES = system: NCI/ADR-RES
# OVCAR-3 = system: OVCAR-3
# OVCAR-4 = system: OVCAR-4
# OVCAR-5 = system: OVCAR-5
# OVCAR-8 = system: OVCAR-8
# PC-3 = system: PC-3
# RPMI-8226 = system: RPMI-8226
# RXF 393 = system: RXF 393
# SF-268 = system: SF-268
# SF-295 = system: SF-295
# SF-539 = system: SF-539
# SK-MEL-28 = system: SK-MEL-28
# SK-MEL-2 = system: SK-MEL-2
# SK-MEL-5 = system: SK-MEL-5
# SK-OV-3 = system: SK-OV-3
# SN12C = system: SN12C
# SNB-19 = system: SNB-19
# SR = system: SR
# SW-620 = system: SW-620
# T47D = system: T47D
# TK-10 = system: TK-10
# U-251 = system: U-251
# UACC-257 = system: UACC-257
# UACC-62 = system: UACC-62
# UO-31 = system: UO-31
# SNB-75 = system: SNB-75
# CAKI-1 = system: CAKI-1
# CCRF-CEM = system: CCRF-CEM
structure (smiles),measurement,setting,value
C#C[C@@]1(O)CCCC2=CC3(CC[C@]21C)SCCS3,GI50,786-0,> 100 µM (inactive)
same,GI50,A498,> 100 µM (inactive)
same,GI50,A549,> 100 µM (inactive)
same,GI50,ACHN,> 100 µM (inactive)
same,GI50,COLO 205,> 100 µM (inactive)
same,GI50,DU-145,> 100 µM (inactive)
same,GI50,EKVX,> 100 µM (inactive)
same,GI50,HCC 2998,> 100 µM (inactive)
same,GI50,HCT-116,> 100 µM (inactive)
same,GI50,HCT-15,> 100 µM
same,GI50,HL-60,45.6 µM (inactive)
same,GI50,HOP-62,> 100 µM (inactive)
same,GI50,HOP-92,> 100 µM (inactive)
same,GI50,HT-29,> 100 µM (inactive)
same,GI50,Hs-578T,> 100 µM (inactive)
same,GI50,IGROV-1,> 100 µM (inactive)
same,GI50,K562,> 100 µM (inactive)
same,GI50,KM12,> 100 µM (inactive)
same,GI50,LOX IMVI,> 100 µM (inactive)
same,GI50,M14,> 100 µM (inactive)
same,GI50,MCF7,> 100 µM (inactive)
same,GI50,MDA-MB-231,> 100 µM (inactive)
same,GI50,MDA-MB-435,> 100 µM (inactive)
same,GI50,MDA-N,> 100 µM (inactive)
same,GI50,MOLT-4,> 100 µM (inactive)
same,GI50,Malme-3M,> 100 µM (inactive)
same,GI50,NCI-H226,> 100 µM (inactive)
same,GI50,NCI-H23,> 100 µM (inactive)
same,GI50,NCI-H460,> 100 µM (inactive)
same,GI50,NCI-H522,> 100 µM (inactive)
same,GI50,NCI/ADR-RES,> 100 µM (inactive)
same,GI50,OVCAR-3,> 100 µM (inactive)
same,GI50,OVCAR-4,> 100 µM (inactive)
same,GI50,OVCAR-5,> 100 µM (inactive)
same,GI50,OVCAR-8,> 100 µM (inactive)
same,GI50,PC-3,> 100 µM (inactive)
same,GI50,RPMI-8226,> 100 µM (inactive)
same,GI50,RXF 393,> 100 µM (inactive)
same,GI50,SF-268,> 100 µM (inactive)
same,GI50,SF-295,> 100 µM (inactive)
same,GI50,SF-539,> 100 µM (inactive)
same,GI50,SK-MEL-28,> 100 µM (inactive)
same,GI50,SK-MEL-2,> 100 µM (inactive)
same,GI50,SK-MEL-5,> 100 µM (inactive)
same,GI50,SK-OV-3,> 100 µM (inactive)
same,GI50,SN12C,> 100 µM (inactive)
same,GI50,SNB-19,> 100 µM (inactive)
same,GI50,SR,> 100 µM (inactive)
same,GI50,SW-620,> 100 µM (inactive)
same,GI50,T47D,> 100 µM (inactive)
same,GI50,TK-10,> 100 µM (inactive)
same,GI50,U-251,> 100 µM (inactive)
same,GI50,UACC-257,> 100 µM (inactive)
same,GI50,UACC-62,> 100 µM (inactive)
same,GI50,UO-31,> 100 µM (inactive)
CC(C)(C)[Si](C)(C)OCC1OC(n2cnc3c(N)ncnc32)C(O[Si](C)(C)C(C)(C)C)C1O[Si](C)(C)C(C)(C)C (configuration not stated),GI50,786-0,3.66 µM (inactive)
same,GI50,A549,9.27 µM (inactive)
same,GI50,ACHN,6.82 µM (inactive)
same,GI50,COLO 205,19.5 µM (inactive)
same,GI50,DU-145,7.93 µM (inactive)
same,GI50,EKVX,24.9 µM (inactive)
same,GI50,HCT-116,6.11 µM (inactive)
same,GI50,HCT-15,35 µM
same,GI50,HOP-62,13.9 µM (inactive)
same,GI50,HOP-92,33.7 µM (inactive)
same,GI50,HT-29,9.75 µM (inactive)
same,GI50,Hs-578T,15.6 µM (inactive)
same,GI50,IGROV-1,8.39 µM (inactive)
same,GI50,LOX IMVI,6.43 µM (inactive)
same,GI50,M14,11.1 µM (inactive)
same,GI50,MDA-MB-231,10.9 µM (inactive)
same,GI50,MDA-N,7.14 µM (inactive)
same,GI50,MOLT-4,2.04 µM (inactive)
same,GI50,Malme-3M,44.9 µM (inactive)
same,GI50,NCI-H460,4.11 µM (inactive)
same,GI50,NCI-H522,7.76 µM (inactive)
same,GI50,NCI/ADR-RES,> 100 µM (inactive)
same,GI50,OVCAR-3,2.87 µM (inactive)
same,GI50,OVCAR-8,14.1 µM (inactive)
same,GI50,PC-3,2.85 µM (inactive)
same,GI50,SF-268,15.1 µM (inactive)
same,GI50,SF-295,10.3 µM (inactive)
same,GI50,SK-MEL-2,15.2 µM (inactive)
same,GI50,SK-MEL-5,3.65 µM (inactive)
same,GI50,SK-OV-3,> 10 µM (inactive)
same,GI50,SN12C,14.9 µM (inactive)
same,GI50,SNB-75,13.4 µM (inactive)
same,GI50,SR,10.3 µM (inactive)
same,GI50,SW-620,10.8 µM (inactive)
same,GI50,T47D,11.9 µM (inactive)
same,GI50,UACC-257,6.17 µM (inactive)
same,GI50,UACC-62,7.41 µM (inactive)
COC(=O)C1C(O)CCC2CN3CCc4c([nH]c5ccccc45)C3CC21 (configuration not stated),GI50,A498,> 100 µM (inactive)
same,GI50,COLO 205,> 100 µM (inactive) and > 68.7 µM (inactive)
same,GI50,DU-145,> 100 µM (inactive) and > 87.7 µM (inactive)
same,GI50,EKVX,> 91 µM (inactive)
same,GI50,HCC 2998,> 100 µM (inactive)
same,GI50,HCT-116,> 100 µM (inactive)
same,GI50,HCT-15,> 67.3 µM
same,GI50,HOP-92,> 51.4 µM (inactive)
same,GI50,HT-29,> 100 µM (inactive) and 72.8 µM (inactive)
same,GI50,Hs-578T,> 100 µM (inactive)
same,GI50,IGROV-1,67.1 µM (inactive)
same,GI50,K562,> 100 µM (inactive)
same,GI50,KM12,> 95.1 µM (inactive)
same,GI50,LOX IMVI,> 100 µM (inactive)
same,GI50,M14,> 100 µM (inactive)
same,GI50,MCF7,> 100 µM (inactive) and > 72.9 µM (inactive)
same,GI50,MDA-MB-231,> 100 µM (inactive)
same,GI50,MDA-N,> 100 µM (inactive) and > 92 µM (inactive)
same,GI50,Malme-3M,> 68.1 µM (inactive)
same,GI50,NCI-H226,> 100 µM (inactive)
same,GI50,NCI-H23,> 100 µM (inactive)
same,GI50,NCI-H522,> 100 µM (inactive)
same,GI50,NCI/ADR-RES,> 100 µM (inactive)
same,GI50,OVCAR-5,> 66.2 µM (inactive)
same,GI50,OVCAR-8,> 100 µM (inactive)
same,GI50,RPMI-8226,> 100 µM (inactive)
same,GI50,RXF 393,> 100 µM (inactive)
same,GI50,SF-268,> 78 µM (inactive)
same,GI50,SF-295,> 100 µM (inactive)
same,GI50,SF-539,> 100 µM (inactive)
same,GI50,SK-MEL-2,> 100 µM (inactive) and > 80.5 µM (inactive)
same,GI50,SK-MEL-5,> 100 µM (inactive)
same,GI50,SN12C,> 100 µM (inactive)
same,GI50,SNB-75,56 µM (inactive)
same,GI50,T47D,> 71.4 µM (inactive)
same,GI50,TK-10,> 100 µM (inactive)
same,GI50,UACC-257,> 87.1 µM (inactive)
same,GI50,UACC-62,> 100 µM (inactive)
same,GI50,UO-31,54.2 µM (inactive)
CC1(c2ccccc2)N=c2[nH]cnc2=C(C(N)=O)N1 (configuration not stated),GI50,786-0,> 100 µM (inactive)
same,GI50,A498,> 100 µM (inactive)
same,GI50,A549,> 100 µM (inactive)
same,GI50,ACHN,> 100 µM (inactive)
same,GI50,CAKI-1,> 100 µM (inactive)
same,GI50,CCRF-CEM,> 100 µM (inactive)
same,GI50,COLO 205,> 100 µM (inactive)
same,GI50,DU-145,> 100 µM (inactive)
same,GI50,EKVX,> 100 µM (inactive)
same,GI50,HCC 2998,> 100 µM (inactive)
same,GI50,HCT-116,> 100 µM (inactive)
same,GI50,HCT-15,> 100 µM
same,GI50,HL-60,> 100 µM (inactive)
same,GI50,HOP-62,> 100 µM (inactive)
same,GI50,HOP-92,> 100 µM (inactive)
same,GI50,HT-29,> 100 µM (inactive)
same,GI50,Hs-578T,> 100 µM (inactive)
same,GI50,IGROV-1,> 100 µM (inactive)
same,GI50,K562,> 100 µM (inactive)
same,GI50,KM12,> 100 µM (inactive)
same,GI50,LOX IMVI,> 100 µM (inactive)
same,GI50,M14,> 100 µM (inactive)
same,GI50,MCF7,> 100 µM (inactive)
same,GI50,MDA-MB-231,> 100 µM (inactive)
same,GI50,MDA-MB-435,> 100 µM (inactive)
same,GI50,MDA-N,> 100 µM (inactive)
same,GI50,Malme-3M,> 100 µM (inactive)
same,GI50,NCI-H226,> 100 µM (inactive)
same,GI50,NCI-H23,> 100 µM (inactive)
same,GI50,NCI-H460,> 100 µM (inactive)
same,GI50,NCI-H522,> 100 µM (inactive)
same,GI50,NCI/ADR-RES,> 100 µM (inactive)
same,GI50,OVCAR-3,> 100 µM (inactive)
same,GI50,OVCAR-4,> 100 µM (inactive)
same,GI50,OVCAR-5,> 100 µM (inactive)
same,GI50,OVCAR-8,> 100 µM (inactive)
same,GI50,PC-3,> 100 µM (inactive)
same,GI50,RPMI-8226,> 100 µM (inactive)
same,GI50,RXF 393,> 100 µM (inactive)
same,GI50,SF-268,> 100 µM (inactive)
same,GI50,SF-295,> 100 µM (inactive)
same,GI50,SF-539,> 100 µM (inactive)
same,GI50,SK-MEL-28,> 100 µM (inactive)
same,GI50,SK-MEL-2,> 100 µM (inactive)
same,GI50,SK-MEL-5,> 100 µM (inactive)
same,GI50,SK-OV-3,> 100 µM (inactive)
same,GI50,SN12C,> 100 µM (inactive)
same,GI50,SNB-19,> 100 µM (inactive)
same,GI50,SNB-75,> 100 µM (inactive)
same,GI50,SR,> 100 µM (inactive)
same,GI50,SW-620,> 100 µM (inactive)
same,GI50,T47D,> 100 µM (inactive)
same,GI50,TK-10,> 100 µM (inactive)
same,GI50,U-251,> 100 µM (inactive)
same,GI50,UACC-257,> 100 µM (inactive)
same,GI50,UACC-62,> 100 µM (inactive)
